Source: ChEMBL document CHEMBL1130295, “A QSAR study of antiplatelet agents using artificial neural network - correlation with micelle-water partition coefficient” (1997)

Test: Antiplatelet activity as log (APA) by using artificial neural network (ANN) method
Format: functional

| Structure (SMILES) | Observed log APA |
| --- | --- |
| Cc1nc2cc(Cl)c(-c3nc(C)c(-c4cccnc4)[nH]3)cc2[nH]1 | 0.68 |
| CCOc1ccccc1-c1nc(C)c(-c2cccnc2)[nH]1 | 1.1 |
| COc1ccccc1-c1nc(C)c(-c2cccnc2)[nH]1 | 1.1 |
| Cc1ccccc1-c1nc(C)c(-c2cccnc2)[nH]1 | 0.18 |
| Cc1[nH]c(-c2ccccc2N)nc1-c1cccnc1 | 0.8 |
| COC(=O)Nc1ccccc1-c1nc(C)c(-c2cccnc2)[nH]1 | 1.4 |
| COc1cc(OC)c(-c2nc(C)c(-c3cccnc3)[nH]2)cc1NC(C)=O | 0.93 |
| Cc1[nH]c(-c2ccccc2F)nc1-c1cccnc1 | 1.4 |
| CCOC(=O)COc1ccccc1-c1nc(C)c(-c2cccnc2)[nH]1 | 0.6 |
| Cc1[nH]c(-c2ccccc2Cl)nc1-c1cccnc1 | 0.38 |
| CSc1ccccc1-c1nc(C)c(-c2cccnc2)[nH]1 | 0.95 |
| COc1cc2c(cc1-c1nc(C)c(-c3cccnc3)[nH]1)nc(O)n2C | 0.57 |
| COc1c(-c2nc(C)c(-c3cccnc3)[nH]2)cc(Cl)c2[nH]c(CCC(=O)O)nc12 | 0.4 |
| COc1cc(NC(C)=O)c([N+](=O)[O-])cc1-c1nc(C)c(-c2cccnc2)[nH]1 | 1.5 |
| COc1c(-c2nc(C)c(-c3cccnc3)[nH]2)ccc2[nH]c(C)nc12 | 0.72 |
| COc1c(-c2nc(C)c(-c3cccnc3)[nH]2)cc2nc(O)[nH]c2c1Cl | 0.79 |
| COc1cc(NC(C)=O)c(Cl)cc1-c1nc(C)c(-c2cccnc2)[nH]1 | 1.4 |
| Cc1nc2cc(-c3nc(C)c(-c4cccnc4)[nH]3)c(C)cc2[nH]1 | 0.74 |
| COc1c(-c2nc(C)c(-c3cccnc3)[nH]2)cc(Cl)c2[nH]c(C)nc12 | 1.3 |
| COc1cc2[nH]c(C)nc2cc1-c1nc(C)c(-c2cccnc2)[nH]1 | 0.83 |
| CNC(=O)Nc1ccccc1-c1nc(C)c(-c2cccnc2)[nH]1 | 1.1 |
| COc1c(-c2nc(C)c(-c3cccnc3)[nH]2)cc2nc(C)[nH]c2c1Cl | 1.4 |
